Assay results published in US20140378460A1, “COMPOSITIONS AND METHODS FOR TREATING NEURODEGENERATIVE DISEASE” (COGNITION THERAPEUTICS, INC., priority 2011, published 2014).
“Also recorded” adds a separate entry of the source. Like-named read-outs stand apart in the source and are kept apart here.

Experiments:
[1] = system: neurons and glia in culture; assay: In vitro neuronal and glial toxicity; assay type: cell-based; details: acute or chronic dosing, up to 50 μM, three days
Excerpt: The sigma-2 receptor antagonists eliminated or reduced Abeta oligomer-induced changes in membrane trafficking.

[2] = system: hAPP transgenic mice (Swedish and London mutations); assay: Morris water maze in hAPP transgenic mice; assay type: in vivo, mouse; details: II 0.5 mg/kg/day; subcutaneous minipump
Experimental: In this study, rather than preventing deficits from occurring, deficits that were already established were treated. These studies were performed pursuant to a service contract by scientists who were blind to the experimental conditions. […]
The swim speed was analyzed as part of the Morris measurements to determine if there were any motor or motivational deficits. Our vehicle is a 5% DMSO/5% Solutol, 90% saline mixture. […] The average of three daily trials on each of four consecutive days were determined.
Escape latency measurements from the Morris water test were taken.
During the final four days of treatment, mice were tested to find the hidden platform in three trials/day. A computerized tracking system automatically quantified escape latency, or swim length.

[3] = system: Abeta oligomer-induced membrane trafficking deficits in primary hippocampal neurons; assay: Membrane trafficking/exocytosis (MTT) assay; assay type: cell-based, rat; details: for EC50: Rattus norvegicus, Hippocampal neuron; for Effect on membrane trafficking when dosed alone (words): absence of Abeta oligomers; for Effect against human Alzheimer's patient-derived Abeta oligomers (words): oligomers isolated from AD patient brains
[4] = system: Abeta oligomer-induced synapse loss in primary hippocampal neurons; assay: Synapse loss assay; assay type: cell-based, rat
Experimental: In this assay, Abeta oligomers were brought in contact with mature primary neurons in culture and their binding was determined by immunohistochemistry (anti-Abeta antibody) and quantified by image processing. The amount of Abeta in neuronal dendrites is assessed by counting the number of labeled puncta on the neuritis. […] This labeling is associated with synapses, co-localizing with the post-synaptic scaffold protein PSD-95 (Lacor et al., '04). […] The number of synapses can also be quantified in this assay by immunofluorochemistry. Similar procedures for binding assays can be found in the literature. […] Review.
Primary hippocampal neuronal culture was established as in the membrane trafficking assay above. […] Pretreatment with compounds to be tested lasted for 1 hr and addition of Abeta oligomers or no oligomer (vehicle alone) in a final concentration of 70 ul was followed by incubation for an additional 23 hrs.
The plates were then washed 3× with PBS for 5 min each. The plates were blocked at RT for 1 hr in 5% goat serum and 0.5% Triton X-100 in PBS. […] Primary antibodies were incubated overnight at 4° C. The plates were then washed 3× with PBS for 5 min each. […] Secondary antibodies were incubated at RT for 1 hr. The plates were washed once with PBS. DAPI (4′,6-diamidino-2-phenylindole, Invitrogen) was then applied at 0.03 ug/ul and incubated at RT for 5 min, then washed with PBS.

[5] = molecular target: mu (MOP) (h) (agonist radioligand) (Homo sapiens, UniProt P35372); assay: Receptor panel, inhibition of binding
Sequence of mu (MOP) (h) (agonist radioligand) (P35372 whole entry): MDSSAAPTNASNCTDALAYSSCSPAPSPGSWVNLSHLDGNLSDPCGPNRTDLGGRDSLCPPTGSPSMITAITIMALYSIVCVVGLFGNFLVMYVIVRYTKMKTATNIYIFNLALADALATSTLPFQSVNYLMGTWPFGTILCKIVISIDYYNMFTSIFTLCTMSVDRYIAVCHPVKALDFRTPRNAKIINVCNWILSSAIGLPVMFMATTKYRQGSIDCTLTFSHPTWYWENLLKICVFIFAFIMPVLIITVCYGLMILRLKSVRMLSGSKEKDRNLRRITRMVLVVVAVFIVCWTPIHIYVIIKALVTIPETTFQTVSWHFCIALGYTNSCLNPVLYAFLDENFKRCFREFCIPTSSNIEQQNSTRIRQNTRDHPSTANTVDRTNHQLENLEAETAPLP

hERG = hERG (Homo sapiens, UniProt Q12809); assay: hERG inhibition; details: 100 nM
Sequence of hERG (Q12809 whole entry): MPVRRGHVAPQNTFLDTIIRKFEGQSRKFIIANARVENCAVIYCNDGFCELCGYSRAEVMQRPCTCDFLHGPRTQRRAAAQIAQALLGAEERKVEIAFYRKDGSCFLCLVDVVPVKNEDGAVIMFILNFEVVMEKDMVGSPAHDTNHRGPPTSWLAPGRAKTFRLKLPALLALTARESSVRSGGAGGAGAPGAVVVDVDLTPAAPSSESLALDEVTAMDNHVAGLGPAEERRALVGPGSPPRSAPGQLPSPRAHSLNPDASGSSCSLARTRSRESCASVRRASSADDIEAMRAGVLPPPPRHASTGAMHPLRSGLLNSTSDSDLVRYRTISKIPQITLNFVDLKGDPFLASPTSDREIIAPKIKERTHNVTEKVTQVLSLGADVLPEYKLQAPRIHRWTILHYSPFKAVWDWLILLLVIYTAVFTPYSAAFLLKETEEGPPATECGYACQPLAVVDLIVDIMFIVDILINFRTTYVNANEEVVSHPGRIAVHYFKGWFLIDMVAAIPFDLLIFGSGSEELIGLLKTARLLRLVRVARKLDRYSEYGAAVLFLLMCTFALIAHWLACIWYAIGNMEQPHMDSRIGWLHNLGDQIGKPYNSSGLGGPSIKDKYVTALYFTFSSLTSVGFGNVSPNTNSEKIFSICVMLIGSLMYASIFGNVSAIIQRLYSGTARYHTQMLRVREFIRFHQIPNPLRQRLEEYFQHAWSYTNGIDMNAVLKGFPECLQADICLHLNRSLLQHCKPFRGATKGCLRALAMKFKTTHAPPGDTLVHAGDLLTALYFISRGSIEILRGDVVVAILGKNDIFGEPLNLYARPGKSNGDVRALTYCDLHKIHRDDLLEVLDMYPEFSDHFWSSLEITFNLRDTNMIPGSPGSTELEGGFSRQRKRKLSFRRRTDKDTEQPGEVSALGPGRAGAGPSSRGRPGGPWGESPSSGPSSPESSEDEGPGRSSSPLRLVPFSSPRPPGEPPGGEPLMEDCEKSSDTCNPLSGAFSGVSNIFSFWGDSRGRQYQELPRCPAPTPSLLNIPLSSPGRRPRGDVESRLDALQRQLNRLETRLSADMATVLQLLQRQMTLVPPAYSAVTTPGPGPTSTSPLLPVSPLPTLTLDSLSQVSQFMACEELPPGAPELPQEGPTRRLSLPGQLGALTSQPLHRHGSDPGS

in vivo = details: male, C57BL/6, mouse, sc, 10 mg/kg
Excerpt: A plasma calibration curve was generated.
Subcutaneous compound administration was accomplished by […]. Per oral administration was accomplished by gastric gavage. Intravenous administration was accomplished via jugular catheter.
A brain calibration curve was generated.

[6] = system: Abeta oligomer-induced memory deficits in wt C57BL/6 mice; assay: Contextual fear conditioning, intrahippocampal Abeta oligomers; assay type: in vivo, mouse; details: before oligomers
Experimental: Several pharmaceutical companies use this same model in their discovery efforts. Contextual fear conditioning is an accepted model of associative memory formation which correlates to human cognitive function and specifically the creation of new memories (Delgado '06). Abeta oligomers are injected into the hippocampus of wild-type animals immediately before conditioning training and memory is assessed via freezing behavior after 24 hours. See, for example, FIGS. 4 and 8. Details are provided in Example 9. […] This model system was chosen because intrahippocampal administration of oligomers allows rapid comparative assessment of compound activity and off-target toxicity. The results are shown graphically in FIG. 4.
Compound II was tested in an animal model of a memory-dependent behavioral task known as fear conditioning. The study protocol was designed based on published protocols (See e.g. Puzzo D, Privitera L, Leznik E, Fà M, Staniszewski A, Palmeri A, Arancio O. Picomolar amyloid-beta positively modulates synaptic plasticity and memory in hippocampus. J. Neurosci. 2008 Dec. 31; 28(53):14537-45.). The formation of contextual memories is dependent upon the integrity of medial temporal lobe structures such as the hippocampus. […]

PGP = PGP (Homo sapiens, UniProt P08183); assay: PGP activity; assay type: in vitro ADME
Sequence of PGP (P08183 whole entry): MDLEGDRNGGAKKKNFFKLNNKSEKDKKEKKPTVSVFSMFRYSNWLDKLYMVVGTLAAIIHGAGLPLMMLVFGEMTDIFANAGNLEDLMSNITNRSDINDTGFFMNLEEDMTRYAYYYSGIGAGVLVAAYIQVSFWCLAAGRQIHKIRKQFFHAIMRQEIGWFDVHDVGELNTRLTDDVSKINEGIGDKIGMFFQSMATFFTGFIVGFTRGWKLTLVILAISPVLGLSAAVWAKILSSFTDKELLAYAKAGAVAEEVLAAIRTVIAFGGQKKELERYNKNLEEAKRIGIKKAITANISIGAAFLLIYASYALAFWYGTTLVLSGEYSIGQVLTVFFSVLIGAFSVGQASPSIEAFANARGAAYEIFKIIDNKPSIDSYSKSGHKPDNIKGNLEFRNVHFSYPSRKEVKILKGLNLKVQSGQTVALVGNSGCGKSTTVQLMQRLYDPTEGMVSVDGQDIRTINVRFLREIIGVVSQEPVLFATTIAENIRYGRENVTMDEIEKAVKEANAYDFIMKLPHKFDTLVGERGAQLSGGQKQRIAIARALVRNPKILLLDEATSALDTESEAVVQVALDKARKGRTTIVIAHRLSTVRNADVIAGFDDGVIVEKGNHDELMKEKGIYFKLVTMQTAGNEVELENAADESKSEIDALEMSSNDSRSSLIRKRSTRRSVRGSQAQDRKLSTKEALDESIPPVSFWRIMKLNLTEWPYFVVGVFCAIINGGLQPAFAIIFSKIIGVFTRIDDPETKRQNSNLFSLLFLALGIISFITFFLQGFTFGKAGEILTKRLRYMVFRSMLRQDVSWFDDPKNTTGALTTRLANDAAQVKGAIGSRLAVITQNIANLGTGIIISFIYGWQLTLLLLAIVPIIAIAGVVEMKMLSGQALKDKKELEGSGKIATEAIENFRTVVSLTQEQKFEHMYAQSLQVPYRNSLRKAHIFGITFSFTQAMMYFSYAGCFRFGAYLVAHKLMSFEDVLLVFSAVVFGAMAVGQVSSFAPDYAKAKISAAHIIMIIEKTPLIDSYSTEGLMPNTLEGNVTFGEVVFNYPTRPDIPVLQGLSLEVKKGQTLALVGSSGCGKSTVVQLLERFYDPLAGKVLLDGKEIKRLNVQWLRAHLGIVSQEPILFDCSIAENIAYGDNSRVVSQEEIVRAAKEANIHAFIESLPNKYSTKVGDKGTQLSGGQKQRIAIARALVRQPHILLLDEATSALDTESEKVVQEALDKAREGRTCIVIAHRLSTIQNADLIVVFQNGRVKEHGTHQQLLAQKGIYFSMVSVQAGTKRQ

COc1cc(CCC(C)NCc2ccc(C(F)(F)F)cc2)ccc1O (stereo not shown) [Compound II]
Neuronal or glial toxicity [1]: did not induce neuronal or glial toxicity
Morris water maze performance versus vehicle-treated transgenic animals [2]: significant improvement in transgenic performance
Effect on Abeta oligomer trafficking deficits over the concentrations tested [3]: blocks oligomer-induced trafficking deficits at all concentrations tested
Max Inhibition of Abeta (%) [3]: 68%
Ki ([3]; Km for Abeta = 0.4 uM, assay concentr. 3 μM total Abeta, read-out: Calculated Ki): 260 nM
EC50 ([3]; Table 11A, read-out: Block Aβ-induced membrane trafficking deficits EC50): 2200 nM
EC50 ([3]; Table 11B, read-out: Inhibition Abeta oligomer-induced Membrane Trafficking EC50): 2200 nM
EC50 ([3]; Table 12, read-out: EC50): 2200 nM
EC50 ([3]; added after oligomers (treatment mode), read-out: EC50 blocking oligomer effects): 4100 nM
EC50 ([3]; added before oligomers (prevention mode), read-out: EC50 blocking oligomer effects): 2200 nM
Functional Neuronal Phenotype ([3]; Table 11B): Antagonist
Effect on membrane trafficking when dosed alone (words) [3]: no significant effect on membrane trafficking
Effect on membrane trafficking when dosed alone (words) ([3]; listed as compound II): does not affect membrane trafficking
Cpd alone at Ki ([3]; compound without Abeta oligomers): +1%
Max Inhib. of Abeta (Conc) ([3]; concentration in brackets): 85% (10)
Effect against human Alzheimer's patient-derived Abeta oligomers (words) [3]: completely eliminated
Effect against human Alzheimer's patient-derived Abeta oligomers (words) ([3]; listed as compound II): rightward shift; also recorded: blocks the membrane trafficking deficits
Schild slope ([3]; synthetic Abeta oligomers): −0.75
Assay effects in the absence of Aβ ([3]; trafficking or synapse number without Abeta oligomer): No
Effect on Abeta oligomer-induced synapse loss [4]: completely eliminated this synaptic regression
Abeta oligomer-induced synapse loss eliminated ([4]; 5 μM): 100%
Block synapse loss ([4]; Table 11B): 100%
Abeta oligomer-induced synapse loss eliminated / recovery ([4]; b801): 100%
Other Targets: Mu opioid ([5]; Table 11E): opioid (4 uM),
inhibition at 10 µM ([5]; read-out: % Inhibition of Control): 60%
hERG inhibition (hERG): 24%
AUC (in vivo): 385 ng·h/mL
Cmax (in vivo): 279 ng/mL
Tmax (in vivo): 30 min
Effect on Abeta oligomer-induced memory deficits [6]: eliminated memory deficits; also recorded: completely blocked oligomer-mediated memory deficits at the 2 pmol dose
IC50 (PGP): > 30000 nM
